# In patent US11185077B2, “Attractants for rodents” (priority 2016, dated 2021):
# Tested on: wild rats
# Assay: Field experiments with paired trap boxes: trap captures of wild rats
# Format: in vivo, rat
# Conditions: Experiment 16, 4 μg synthetic androstenone
# From the text: Four field experiments were run in Vancouver B.C. to evaluate the effect of synthetic androstenone and synthetic testosterone on captures of female wild mice and rats in combination with species-specific male sex pheromone blend. Experimental replicates were set up along the interior and exterior walls of buildings as depicted in FIG. 7. Experiment 15 evaluated captures of wild mice in trap boxes baited with high-levels of androstenone; Experiment 16 evaluated captures of wild rats in traps baited with high-levels of androstenone; Experiment 17 evaluated captures of wild mice in traps baited with low-levels of testosterone; and Experiment 18 evaluated captures of wild mice in traps baited with low-levels of androstenone. Experiment 15 was run from Feb. 4, 2016 to Apr. 14, 2016. Experiment 16 was run from Feb. 26, 2016 to Sep. 19, 2016. Experiments 17 and 18 were run in parallel from Jun. 2, 2016 to Sep. 8, 2016.
# Each replicate of Experiments 15 to 18 consisted of a pair of trap boxes (Mice: PROTECTA® Mouse, Bell Laboratories Inc., Madison, Wis. 53704, USA; Rats: PROTECTA® Sidekick™; Bell Laboratories Inc., Madison, Wis. 53704), with 50-cm spacing between boxes in each pair, and at least 2 m between pairs. Each trap box contained an armed snap trap (1, Mice: Victor® Easy Set® Mouse Trap; Rats: Victor® Easy Set® Rat Trap; Woodstream Corp, Lititz, Pa. 17543, USA) baited with a cereal-based food bait and a scintillation vial (2) containing synthetic sex pheromone blends. Each box in each pair also contained a treatment stimulus that consisted of a piece of Whatman #1 filter paper (3a) that by random assignment was treated with: 4 μg of synthetic androstenone dissolved in 50 μl ether (Experiments 15 and 16); 750 μg of synthetic testosterone dissolved in 50 μl ether (Experiment 17); or 750 μg of synthetic androstenone dissolved in 50 μl ether (Experiment 18). […]
# Experiments 19 and 20 evaluated the effect of synthetic blends of progesterone and estradiol (estrogen) on captures of wild mice (Experiment 19) and wild rats (Experiment 20) in the field. […]
compound,measurement,setting,value
"C[C@]12CCC(=O)C[C@@H]1CC[C@@H]1[C@@H]2CC[C@]2(C)C=CC[C@@H]12 [androstenone, 5α-androst-16-en-3-one]",captures of juvenile and adult male rats,,no significant effect
same,captures of juvenile female rats,,no significant effect
same,captures of adult female rats vs control boxes,with food bait and male rat sex pheromone blend,significantly more
